Our source for the remaining target (mRNA or protein) (fraction of control) values is the OligoGym collection.

These antisense oligonucleotides have a phosphorothioate backbone; sugars and methylation of C are not fully specified.

Among the targets are DUSP9; DUSP8; PIK3CB.
Conditions in all cases: ASO
Further: test concentration or dose not given here.

Sequence AAGAACCGCGACAGGTTCTG yielded a remaining target (mRNA or protein) (fraction of control) with DUSP9 of 0.83. As for AAGCTGTCTGCGGCCAGCAC, in the data set with DUSP8, the remaining target (mRNA or protein) (fraction of control) came out at 0.71. ACCCTCCATGGGCGATCGGC registered a remaining target (mRNA or protein) (fraction of control) with DUSP9 of 0.43. As to ACCTGGCTGCGTGCAGCCGG, the remaining target (mRNA or protein) (fraction of control) in the data set with DUSP8 is at least 1.

For the sequence AGAAGAGGCAGGCTCCGAGC, the remaining target (mRNA or protein) (fraction of control) with DUSP9 is 0.53.

In the case of AGACCCTCCATGGGCGATCG, the remaining target (mRNA or protein) (fraction of control) in the data set with DUSP9 turned out to be 0.45. In the data set with DUSP8, AGAGCGGGAGATGCCAGCCA had a remaining target (mRNA or protein) (fraction of control) of 0.32. AGAGGTGAGGCAGGATGCGG gave a remaining target (mRNA or protein) (fraction of control) with DUSP8 of at least 1. Consider AGCAGATGTTGACGGAGCTG, for which the remaining target (mRNA or protein) (fraction of control) with DUSP8 was at least 1. Still for that read-out and setting: the figure for AGCTGGCCCAGGAAGTTGAA is 0.95; for AGGAGAGGTGCAGGCCGCGC it is 0.91; for ATCAGATCCTTGTTTAGGAC it is at least 1. CACCATGCCCTCCTCGAACT came in with a remaining target (mRNA or protein) (fraction of control) with DUSP8 of 0.84. Still for that read-out and setting: in the case of CAGGCTTGCCCTCGCAGAGG it was at least 1; in that of CAGGGCGGCCAGCAGCTTCA, at least 1. CCCAGGCCCGCCCCGCAGCA gave a remaining target (mRNA or protein) (fraction of control) with DUSP8 of 0.66. Still for that read-out and setting: the figure for CCCGTCGGGCGACGGCGTGC is at least 1.

CCGACGGGCTGTCCAGCTTG gave a remaining target (mRNA or protein) (fraction of control) in the data set with DUSP8 of 0.94. Same read-out and setting: the figure for CCTCAGGCGCGGCGTCCGGG is at least 1; for CGCCCGCCCGGCCGAAGGGC it is 0.86. Same read-out and setting: the figure for CTCAGGCCGCCCTCCCTGGC is 0.65; for GACTGAAGGTGGCCTCGTAT it is 0.69; for GAGAGCTTGGCTTTATCGAT it is 0.68. On the same count and under the same terms, the figure for GAGCCGGTCCCCAGCCATGG is at least 1; for GAGCTCGAGGACCACCCGCA it is 0.89; for GCCTGTCCTTCACGAACCTG it is at least 1. As for GCTGGACCTCGCTCGCGCTC, in the data set with DUSP8, the remaining target (mRNA or protein) (fraction of control) is at least 1. The same measure, in the same setting: the figure for GGAGAAGGAGCGCTTGAGGC is 0.98; for GGCAGGCAGGGCTGGGAGAG it is at least 1. Same read-out and setting: the figure for GGCCAGCCGGTCCGCGCGTC is 0.52; for GGCTGCTCCGACGGCCCAGG it is at least 1; for GGGCAGCCCGGGCGCCGACA it is 0.81. Still for that read-out and setting: in the case of GTAGGTGGTGGCAGCCGTGG it was at least 1; in that of GTCAGGACACCTCGATGACC, at least 1.

Regarding GTCGAAGCAGCCGTCCAGCT, the remaining target (mRNA or protein) (fraction of control) in the data set with DUSP8 was at least 1.

TCACCTTGCCCTGCTGCAGC showed a remaining target (mRNA or protein) (fraction of control) in the data set with DUSP8 of 0.33. In the data set with DUSP8, TCGCCTGCTTGCCCAGGGCG showed a remaining target (mRNA or protein) (fraction of control) of 0.69. Same read-out and setting: in the case of TCTGCCGGGCCGCATCGCCG it was 0.35; in that of TGCCCATGGTCTTCATGATG, 0.7; in that of TGGTCATAGACCACCACGTC, at least 1. As for TGTAATATTATGTCTCCAGT, the remaining target (mRNA or protein) (fraction of control) with PIK3CB was 0.9.

Sequence TTCACTTTAGTAGTCCAGCT had a remaining target (mRNA or protein) (fraction of control) in the data set with PIK3CB of 0.89. Take TTCCCGAGGTACCTCCAACT: in the data set with PIK3CB, the remaining target (mRNA or protein) (fraction of control) was found to be 0.7. Turning to TTCTTTGCATTATATATAAT, the remaining target (mRNA or protein) (fraction of control) with DUSP8 is at least 1.

In the data set with DUSP8, TTGCTGGCGTTGAGGACGTA had a remaining target (mRNA or protein) (fraction of control) of 0.45. On the same count and under the same terms, the figure for TTTCACAGTAGTTGTCGTTG is at least 1.
